Structures are written as SMILES.

The values that follow come from ChEMBL document CHEMBL1124282, “Synthesis of fluorescent muramyl dipeptide congeners. 2” (1988).

The species entered for test [1] is Cavia porcellus. The experiment in a line: Adjuvant activity was determined by the ability of compound to stimulate delayed hypersensitivity by intradermal injection of 10 ug of ovalbumin after 48 hr in guinea pigs. The test is classed as functional.
The species entered for test [2] is Cavia porcellus. Nature of the test: Antibody response to the compound was determined in guinea pigs. The test is classed as functional.

Consider `COc1ccc2c(c1)Oc1cc(O)ccc1/C2=C1C=C/C(=N/c2nc(O)nc(NCCCC[C@H](NC(=O)[C@@H](C)OC3C(O)C(CO)OC(O)C3NC(C)=O)C(=O)N[C@H](CCC(=O)O)C(N)=O)n2)C=C\1C(=O)O` (stereo partly drawn), for which the DTH in test [1] came to 2.9. Also, the Antibody response in test [2] turned out to be 17.6.

On to `COc1ccc2c(c1)Oc1cc(O)ccc1/C2=C1C=C/C(=N/c2nc(O)nc(NCCCC[C@H](NC(=O)CC[C@@H](NC(=O)[C@H](C)NC(=O)[C@@H](C)OC3C(O)C(CO)OC(O)C3NC(C)=O)C(N)=O)C(=O)O)n2)C=C\1C(=O)O` (stereo partly drawn), for which, in test [1], the DTH was determined as 20.2. The compound further displayed an Antibody response in test [2] of 192.

`COc1ccc2c(c1)Oc1cc(O)ccc1/C2=C1C=C/C(=N/c2nc(O)nc(OCC3OC(O)C(NC(C)=O)C(O[C@H](C)C(=O)N[C@@H](C)C(=O)N[C@H](CCC(=O)O)C(N)=O)C3O)n2)C=C\1C(=O)O` (stereo partly drawn): the DTH in test [1] stood at 11.5. The same compound displayed an Antibody response in test [2] of 123.34.

In the case of `CC(=O)N[C@H]1C(O)O[C@H](CO)[C@@H](O)[C@@H]1O[C@H](C)C(=O)N[C@@H](C)C(=O)N[C@H](CCC(=O)O)C(N)=O` (stereo partly drawn) [MURAMYL DIPEPTIDE], the DTH in test [1] is listed as 10.6. In test [2], this compound showed an Antibody response of 82.49.
